Source: PubChem BioAssay (NCI)
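Abbreviation: GI50, concentration required for 50% inhibition of growth. TGI marks complete inhibition of growth.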

What was measured:
Test in all cases: growth of human tumour cells (NCI), 384-well format
SF-295 CNS = tested on: SF-295 CNS
DU-145 prostate = tested on: DU-145 prostate
RXF 393 renal = tested on: RXF 393 renal
COLO 205 colon = tested on: COLO 205 colon
SNB-75 CNS = tested on: SNB-75 CNS
HL-60(TB) leukemia = tested on: HL-60(TB) leukemia
HCT-116 colon = tested on: HCT-116 colon
T-47D breast = tested on: T-47D breast
A549 NSCLC = tested on: A549 NSCLC
MALME-3M melanoma = tested on: MALME-3M melanoma
SN12C renal = tested on: SN12C renal
SK-OV-3 ovarian = tested on: SK-OV-3 ovarian
786-0 renal = tested on: 786-0 renal
NCI-H322M lung = tested on: NCI-H322M lung
SF-539 CNS = tested on: SF-539 CNS
NCI-H522 lung = tested on: NCI-H522 lung
OVCAR-4 ovarian = tested on: OVCAR-4 ovarian
MDA-MB-468 breast = tested on: MDA-MB-468 breast
SK-MEL-5 melanoma = tested on: SK-MEL-5 melanoma
CAKI-1 renal = tested on: CAKI-1 renal
MDA-MB-231 breast = tested on: MDA-MB-231 breast
SR leukemia = tested on: SR leukemia
A498 renal = tested on: A498 renal
MDA-MB-435 melanoma = tested on: MDA-MB-435 melanoma
LOX IMVI melanoma = tested on: LOX IMVI melanoma
ACHN renal = tested on: ACHN renal
SNB-19 CNS = tested on: SNB-19 CNS
HOP-62 NSCLC = tested on: HOP-62 NSCLC
M14 melanoma = tested on: M14 melanoma
PC-3 prostate = tested on: PC-3 prostate
MOLT-4 leukemia = tested on: MOLT-4 leukemia
HCT-15 colon = tested on: HCT-15 colon
HT29 colon = tested on: HT29 colon
UO-31 renal = tested on: UO-31 renal
SK-MEL-2 melanoma = tested on: SK-MEL-2 melanoma
TK-10 renal = tested on: TK-10 renal
KM12 colon = tested on: KM12 colon
SK-MEL-28 melanoma = tested on: SK-MEL-28 melanoma
NCI-H460 NSCLC = tested on: NCI-H460 NSCLC
IGROV1 ovarian = tested on: IGROV1 ovarian
RPMI-8226 leukemia = tested on: RPMI-8226 leukemia
HCC-2998 colon = tested on: HCC-2998 colon
NCI/ADR-RES ovarian = tested on: NCI/ADR-RES ovarian
HOP-92 NSCLC = tested on: HOP-92 NSCLC
UACC-257 melanoma = tested on: UACC-257 melanoma
OVCAR-5 ovarian = tested on: OVCAR-5 ovarian
CCRF-CEM leukemia = tested on: CCRF-CEM leukemia
SF-268 CNS = tested on: SF-268 CNS
MCF7 breast = tested on: MCF7 breast
K-562 leukemia = tested on: K-562 leukemia
UACC-62 melanoma = tested on: UACC-62 melanoma
HS 578T breast = tested on: HS 578T breast
BT-549 breast = tested on: BT-549 breast
NCI-H23 lung = tested on: NCI-H23 lung
U251 glioblastoma = tested on: U251 glioblastoma
EKVX NSCLC = tested on: EKVX NSCLC
NCI-H226 lung = tested on: NCI-H226 lung
OVCAR-3 ovarian = tested on: OVCAR-3 ovarian
SW-620 colon = tested on: SW-620 colon

Q: What does the source list for `CCCCc1nc2cc(/C=C/C(=O)NO)ccc2n1CCN(CC)CC`?
A: GI50 (SF-295 CNS): 186 nM; TGI (SF-295 CNS): 397 nM; GI50 (DU-145 prostate): 120 nM; TGI (DU-145 prostate): 375 nM; GI50 (RXF 393 renal): < 10 nM; TGI (RXF 393 renal): 237 nM; GI50 (COLO 205 colon): 178 nM; TGI (COLO 205 colon): 419 nM; GI50 (SNB-75 CNS): 119 nM; TGI (SNB-75 CNS): 1630 nM; GI50 (HL-60(TB) leukemia): 144 nM; TGI (HL-60(TB) leukemia): 280 nM; GI50 (HCT-116 colon): 125 nM; TGI (HCT-116 colon): 377 nM; GI50 (T-47D breast): 136 nM; TGI (T-47D breast): 310 nM; GI50 (A549 NSCLC): 321 nM; TGI (A549 NSCLC): 1270 nM; GI50 (MALME-3M melanoma): 130 nM; TGI (MALME-3M melanoma): 402 nM; GI50 (SN12C renal): 286 nM; TGI (SN12C renal): 1290 nM; GI50 (SK-OV-3 ovarian): 239 nM; TGI (SK-OV-3 ovarian): 911 nM; GI50 ([…]-0 renal): 317 nM; TGI (786-0 renal): 2000 nM; GI50 (NCI-H322M lung): 206 nM; TGI (NCI-H322M lung): 1140 nM; GI50 (SF-539 CNS): 415 nM; TGI (SF-539 CNS): 2480 nM; GI50 (NCI-H522 lung): 34.3 nM; TGI (NCI-H522 lung): 247 nM; GI50 (OVCAR-4 ovarian): 392 nM; TGI (OVCAR-4 ovarian): 1950 nM; GI50 (MDA-MB-468 breast): 134 nM; TGI (MDA-MB-468 breast): 356 nM; GI50 (SK-MEL-5 melanoma): 129 nM; TGI (SK-MEL-5 melanoma): 290 nM; GI50 (CAKI-1 renal): 206 nM; TGI (CAKI-1 renal): 709 nM; GI50 (MDA-MB-231 breast): 187 nM; TGI (MDA-MB-231 breast): 613 nM; GI50 (SR leukemia): < 10 nM; TGI (SR leukemia): 107 nM; GI50 (A498 renal): 298 nM; TGI (A498 renal): 1070 nM; GI50 (MDA-MB-435 melanoma): 226 nM; TGI (MDA-MB-435 melanoma): 616 nM; GI50 (LOX IMVI melanoma): 203 nM; TGI (LOX IMVI melanoma): 588 nM; GI50 (ACHN renal): 221 nM; TGI (ACHN renal): 955 nM; GI50 (SNB-19 CNS): 511 nM; TGI (SNB-19 CNS): 1980 nM; GI50 (HOP-62 NSCLC): 250 nM; TGI (HOP-62 NSCLC): 1640 nM; GI50 (M14 melanoma): 358 nM; TGI (M14 melanoma): 1710 nM; GI50 (PC-3 prostate): 185 nM; TGI (PC-3 prostate): 689 nM; GI50 (MOLT-4 leukemia): 30.9 nM; TGI (MOLT-4 leukemia): 197 nM; GI50 (HCT-15 colon): 483 nM; TGI (HCT-15 colon): 2110 nM; GI50 (HT29 colon): 203 nM; TGI (HT29 colon): 809 nM; GI50 (UO-31 renal): 82.9 nM; TGI (UO-31 renal): 1520 nM; GI50 (SK-MEL-2 melanoma): 169 nM; TGI (SK-MEL-2 melanoma): 339 nM; GI50 (TK-10 renal): 258 nM; TGI (TK-10 renal): 948 nM; GI50 (KM12 colon): 280 nM; TGI (KM12 colon): 1420 nM; GI50 (SK-MEL-28 melanoma): 179 nM; TGI (SK-MEL-28 melanoma): 465 nM; GI50 (NCI-H460 NSCLC): 235 nM; TGI (NCI-H460 NSCLC): 1320 nM; GI50 (IGROV1 ovarian): 119 nM; TGI (IGROV1 ovarian): 539 nM; GI50 (RPMI-8226 leukemia): < 10 nM; TGI (RPMI-8226 leukemia): 17 nM; GI50 (HCC-2998 colon): 106 nM; TGI (HCC-2998 colon): 414 nM; GI50 (NCI/ADR-RES ovarian): 489 nM; TGI (NCI/ADR-RES ovarian): 2330 nM; GI50 (HOP-92 NSCLC): 176 nM; TGI (HOP-92 NSCLC): 518 nM; GI50 (UACC-257 melanoma): 178 nM; TGI (UACC-257 melanoma): 561 nM; GI50 (OVCAR-5 ovarian): 119 nM; TGI (OVCAR-5 ovarian): 484 nM; GI50 (CCRF-CEM leukemia): 62.3 nM; TGI (CCRF-CEM leukemia): 206 nM; GI50 (SF-268 CNS): 174 nM; TGI (SF-268 CNS): 602 nM; GI50 (MCF7 breast): 185 nM; TGI (MCF7 breast): 1130 nM; GI50 (K-562 leukemia): 17.5 nM; TGI (K-562 leukemia): 205 nM; GI50 (UACC-62 melanoma): 83.4 nM; TGI (UACC-62 melanoma): 235 nM; GI50 (HS 578T breast): 125 nM; TGI (HS 578T breast): 317 nM; GI50 (BT-549 breast): 230 nM; TGI (BT-549 breast): 1160 nM; GI50 (NCI-H23 lung): 296 nM; TGI (NCI-H23 lung): 1440 nM; GI50 (U251 glioblastoma): 174 nM; TGI (U251 glioblastoma): 503 nM; GI50 (EKVX NSCLC): 649 nM; TGI (EKVX NSCLC): 4320 nM; GI50 (NCI-H226 lung): 697 nM; TGI (NCI-H226 lung): 2100 nM; GI50 (OVCAR-3 ovarian): 181 nM; TGI (OVCAR-3 ovarian): 974 nM; GI50 (SW-620 colon): 166 nM; TGI (SW-620 colon): 334 nM
